In paper PMC4076215, “Nickel(II) Complex of Polyhydroxybenzaldehyde N4-Thiosemicarbazone Exhibits Anti-Inflammatory Activity by Inhibiting NF-κB Transactivation” (PLoS ONE, 2014):

Assay: Liver functional test (serum) after oral dosing
Format: in vivo, C57BL/6 mice
Settings: after two weeks
Experimental: Liver functional test. C57BL/6 mice at age 8-12 weeks old were administrated orally with control PBS or with various concentrations (125 mg/kg, 250 mg/kg and 500 mg/kg) of complex 5. n= 6 (3 male and 3 female mice)/group. After two weeks, sera were collected from the mice for liver functional test.
Shown were mean ± SD. TBIL: Total Bilirubin, BC: Conjugated
Bilirubin, ALP: Alkaline Phophatase, ALT: Alanine Aminotransferase, AST: Aspartate Transaminase, GGT: G-Glutamyl Transferase.

For `NC1=[S+][Ni-2]2([P+](c3ccccc3)(c3ccccc3)c3ccccc3)[O]c3c(O)cccc3C=[N+]2N1.[Cl-]` [complex 5, {2-[(2-Carbamothiolylhydrazin-1-ylidene-[kappa]2N1,S)methyl]-6-hydroxyphenolato-[kappa]O1}(triphenylphosphine-[kappa]P)nickel(II) chloride], the “ALP (Alkaline Phophatase)” value (125 mg/kg oral) was 192.00 IU/L, the “ALT (Alanine Aminotransferase)” value (125 mg/kg oral) was 69.00 IU/L and the “AST (Aspartate Transaminase)” value (125 mg/kg oral) was 421.00 IU/L. The Albumin (125 mg/kg oral) was 18.00 g/L, the “BC (Conjugated Bilirubin)” value (125 mg/kg oral) was < 1 µmol/L and the “GGT (G-Glutamyl Transferase)” value (125 mg/kg oral) was < 3 IU/L. For the same compound, the Globulin (125 mg/kg oral) was 42.00 g/L, the “TBIL (Total Bilirubin)” value (125 mg/kg oral) was 3.00 µmol/L and the “Total Protein” value (125 mg/kg oral) was 60.00 g/L. The “ALP (Alkaline Phophatase)” value (250 mg/kg oral) was 195.00 IU/L, the “ALT (Alanine Aminotransferase)” value (250 mg/kg oral) was 70.00 IU/L and the “AST (Aspartate Transaminase)” value (250 mg/kg oral) was 414.00 IU/L. The Albumin (250 mg/kg oral) was 17.00 g/L, the “BC (Conjugated Bilirubin)” value (250 mg/kg oral) was < 1 µmol/L and the “GGT (G-Glutamyl Transferase)” value (250 mg/kg oral) was < 3 IU/L. For the same compound, the Globulin (250 mg/kg oral) was 42.00 g/L, the “TBIL (Total Bilirubin)” value (250 mg/kg oral) was 2.50 µmol/L and the “Total Protein” value (250 mg/kg oral) was 59.00 g/L. The “ALP (Alkaline Phophatase)” value (500 mg/kg oral) was 219.50 IU/L, the “ALT (Alanine Aminotransferase)” value (500 mg/kg oral) was 70.00 IU/L and the “AST (Aspartate Transaminase)” value (500 mg/kg oral) was 316.50 ± 78.49 IU/L. For the same compound, the Albumin (500 mg/kg oral) was 16.00 g/L, the “BC (Conjugated Bilirubin)” value (500 mg/kg oral) was < 1 µmol/L and the “GGT (G-Glutamyl Transferase)” value (500 mg/kg oral) was < 3 IU/L. For the same compound, the Globulin (500 mg/kg oral) was 37.50 g/L, the “TBIL (Total Bilirubin)” value (500 mg/kg oral) was 3.00 µmol/L and the “Total Protein” value (500 mg/kg oral) was 53.50 g/L.
